Reference: patent US7803825B2, “Aminoalkylazole derivatives as histamine-3 antagonists” (Wyeth LLC, priority 2007, dated 2010)
Where a name gives a salt, the structure may show the parent alone.

Target: T1, histamine-3 (H3) receptor (Homo sapiens, UniProt Q9Y5N1)
T1 construct: expressed in transfected cells; host or cells: HEK293T
Assay: Methyl Histamine Binding in Human Histamine-3 Receptor Cell Line
Conditions: membranes of stably transfected HEK293T cells, radioligand 1 nM, Ki from IC50 by Cheng-Prusoff
Procedure: Evaluation of Methyl Histamine Binding in Human Histamine-3 Receptor Cell Line
The affinity of test compounds for the histamine-3 (H3) receptor is evaluated in the following manner. Stably transfected HEK293T cells are grown in DMEM containing 10% heat inactivated FBS and G-418 (500 ug/ml). Cells are scraped from the plate, transferred to centrifuge tubes, washed one time in PBS by centrifugation in a Sorvall RT7 Plus centrifuge (2000 rpm 10 minutes, 4° C.). The resulting pellets are stored at 80° C. until ready for use. Cells are re-suspended in buffer (50 mM Tris pH=7.5) and placed in a Dounce homogenizer, douncing ten times to homogenize cells. The homogenate is spun down by centrifugation (Sorvall RT7 Plus, 1800 rpm 10 minutes, 4° C.). The supernatant is placed in a Corex tube and spun down by centrifugation (Sorvall RC 5c Plus, 17,000 rpm 20 minutes, 4° C.). The pellet is resuspended in buffer (50 mM Tris, pH 7.5). Protein concentration (ug/ul) is determined using the Micro-BCA Protein Determination. The binding assay is set up in a 96 well microtiter plate in a total volume of 250 uL. Non-specific binding is determined in the presence of 10 uM clobenpropit. The final radioligand concentration is 1 nM. The test compound is serially diluted using the Beckman Biomek2000 to a final approximate range of 100 uM to 100 pM. Membranes are suspended in buffer, homogenized in 2 bursts of ten seconds using a Vitris mechanical homogenizer set at power setting 5. Ten μg of membranes are added to each well. Following a one hour incubation at 30° C., the reaction is terminated by the addition of ice cold buffer and rapid filtration with a Packard Filtermate Harvester through a GF/B filter pre-soaked with 1% PEI for one hour. The plate is dried for one hour at 37° C. and 60 μL Microscint Scintillant is added to each well. The CPM per well is measured on a Packard Top Count NXT. Ki values are determined in nM. The Ki is calculated from the IC50 (i.e. the concentration of competing ligand which displaces 50% of the specific binding of the radioligand). CPM values are expressed as % specific binding and plotted vs compound concentration. A curve is fitted using a four-parameter logistic fit and the IC50 value is determined. The Ki is calculated from this using the Cheng-Prusoff equation: […]=IC50/1+(L/Kd) where L=concentration of free radioligand used in the assay, and Kd is the dissociation constant of the radioligand for the receptor. L is determined for each experiment by counting an aliquot of the diluted radioligand (corresponding to that added to each well) and the Kd has previously been determined under identical conditions for this cell line/radioligand.

T1 sequence (Q9Y5N1 whole entry): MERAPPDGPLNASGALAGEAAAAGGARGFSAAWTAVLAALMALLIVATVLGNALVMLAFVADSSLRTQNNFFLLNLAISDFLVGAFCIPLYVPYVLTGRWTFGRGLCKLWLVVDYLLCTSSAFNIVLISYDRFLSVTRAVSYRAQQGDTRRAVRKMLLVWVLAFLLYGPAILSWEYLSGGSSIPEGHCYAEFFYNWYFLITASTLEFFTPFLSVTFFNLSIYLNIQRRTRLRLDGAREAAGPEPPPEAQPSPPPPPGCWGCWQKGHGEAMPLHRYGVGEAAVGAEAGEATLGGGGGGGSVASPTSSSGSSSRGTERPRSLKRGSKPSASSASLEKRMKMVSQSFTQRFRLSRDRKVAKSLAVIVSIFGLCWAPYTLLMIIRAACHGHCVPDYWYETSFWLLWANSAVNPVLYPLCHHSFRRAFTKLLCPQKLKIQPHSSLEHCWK

SMILES	Ki
C[C@H]1CCCN1Cc1coc(-c2ccc(Cn3ncc4ccccc43)cc2)n1 [Example 97, 1-[4-(4-{[(2S)-2-methylpyrrolidin-1-yl]methyl}-1,3-oxazol-2-yl)benzyl]-1H-indazole]	≤ 10 nM
c1ccc2c(c1)ncn2-c1ccc(-c2nc(CN3CCCC3)co2)cc1 [Example 36, 1-{4-[4-(pyrrolidin-1-ylmethyl)-1,3-oxazol-2-yl]phenyl}-1H-benzimidazole]	≤ 10 nM
CCN(C)Cc1coc(-c2ccc(-c3nc4ccccc4n3C)cc2)n1 [Example 53, N-methyl-N-({2-[4-(1-methyl-1H-benzimidazol-2-yl)phenyl]-1,3-oxazol-4-yl}methyl)ethanamine]	≤ 10 nM
c1ccc2c(c1)ccn2Cc1ccc(-c2nc(CN3CCCC3)co2)cc1 [Example 81, 1-{4-[4-(pyrrolidin-1-ylmethyl)-1,3-oxazol-2-yl]benzyl}-1H-indole Hydrochloride]	50.1 to 100 nM
Cn1c(-c2ccc(-c3nc(CN4CCCC4)co3)cc2)nc2ccccc21 [Example 51, 1-methyl-2-{4-[4-(pyrrolidin-1-ylmethyl)-1,3-oxazol-2-yl]phenyl}-1H-benzimidazole]	≤ 10 nM
c1ccc2c(c1)nc(-c1ccc(-c3nc(CN4CCCC4)co3)cc1)n2CCC1CCCCC1 [Example 60, 1-(2-cyclohexylethyl)-2-{4-[4-(pyrrolidin-1-ylmethyl)-1,3-oxazol-2-yl]phenyl}-1H-benzimidazole]	50.1 to 100 nM
CC1CCCN1Cc1csc(-c2ccc(Cn3cnc4ccccc43)cc2)n1 (stereo not shown) [Example 72, 1-(4-{4-[(2-methylpyrrolidin-1-yl)methyl]-1,3-thiazol-2-yl}benzyl)-1H-benzimidazole]	≤ 10 nM
C[C@@H]1CCCN1Cc1coc(-c2ccc(Cn3ncc4cc(F)ccc43)cc2)n1 [Example 95, 5-fluoro-1-[4-(4-{[(2R)-2-methylpyrrolidin-1-yl]methyl}-1,3-oxazol-2-yl)benzyl]-1H-indazole]	50.1 to 100 nM
OC[C@@H]1CCCN1Cc1coc(-c2ccc(-n3cnc4ccccc43)cc2)n1 [Example 48, [(2S)-1-({2-[4-(1H-benzimidazol-1-yl)phenyl]-1,3-oxazol-4-yl}methyl)pyrrolidin-2-yl]methanol]	≤ 10 nM

Second part, the molecule after the results:

Ki	SMILES
≤ 10 nM	C[C@H]1CCCN1Cc1cnc(-c2ccc(Cn3cnc4ccccc43)cc2)n1C [Example 140, (5)-1-(4-(1-methyl-5-((2-methylpyrrolidin-1-yl)methyl)-1H-imidazol-2-yl)benzyl)-1H-benzo[d]imidazole fumarate salt]
25.1 to 50 nM	C[C@@H]1CCCN1Cc1cnc(-c2ccc(Cn3cnc4ccccc43)cc2)o1 [Example 108, 1-[4-(5-{[(2R)-2-methylpyrrolidin-1-yl]methyl}-1,3-oxazol-2-yl)benzyl]-1H-benzimidazole]
> 100 nM	c1ccc2c(c1)ncn2Cc1ccc(-c2ncc(CN3CCCCC3)o2)cc1 [Example 107, 1-{4-[5-(piperidin-1-ylmethyl)-1,3-oxazol-2-yl]benzyl}-1H-benzimidazole]
≤ 10 nM	CC1CCCN1Cc1cnc(-c2ccc(Cn3cnc4ccccc43)cc2)o1 (stereo not shown) [Example 105, 1-(4-{5-[(2-methylpyrrolidin-1-yl)methyl]-1,3-oxazol-2-yl}benzyl)-1H-benzimidazole]
≤ 10 nM	C[C@H]1CCCN1Cc1coc(-c2ccc(Cn3ncc4cc(F)ccc43)cc2)n1 [Example 98, 5-fluoro-1-[4-(4-{[(2S)-2-methylpyrrolidin-1-yl]methyl}-1,3-oxazol-2-yl)benzyl]-1H-indazole]
≤ 10 nM	C[C@H]1CCCN1Cc1coc(-c2ccc(Cn3c(-c4ccccc4)nc4ccccc43)cc2)n1 [Example 117, 1-[4-(4-{[(2S)-2-methylpyrrolidin-1-yl]methyl}-1,3-oxazol-2-yl)benzyl]-2-phenyl-1H-benzimidazole]
≤ 10 nM	NCc1ccc2c(cnn2Cc2ccc(-c3nc(CN4CCCC4)co3)cc2)c1 [Example 102, 1-(1-{4-[4-(pyrrolidin-1-ylmethyl)-1,3-oxazol-2-yl]benzyl}-1H-indazol-5-yl)methanamine]
